In US4895853A, “Antitumor alkaloids” (priority 1986, dated 1990):
Converted amounts (≈) assume the structure as drawn. Like-named read-outs stand apart in the source and are kept apart here.

Tested on: P388 mouse leukemia cells
Assay: P388 mouse leukemia cell assay (growth inhibition, 48 h)
Format: cell-based
Conditions: read-out: P388 IC50
Experimental: The following assay method was utilized to illustrate the antitumor effectiveness of the compositions of Formulae I-V corresponding to manzamines B-D of the examples.
P388 mouse leukemia cells are grown in Dulbecco MEM medium with 10% horse serum, 4 mM glutamine, and 20 ug/ml gentamycin (Biologos, Inc.). Cells are incubated in 10% CO2 and subcultured 2 times per week.
1. Add compound to each well of a 24-well plate or tube and allow solvent to evaporate to dryness.
2. Add 2 ml (1.2×10^5) cells to each well or tube and mix.
3. Incubate in 10% CO2 at 37° for 48 hours.
4. Read platees with an inverted microscope, scoring activity from 1+ to 4+ as follows: ND (not detectable), >90%; 1+, 75-90%; 2+, 50-74%; 3+, 25-49%; 4+, <25% of control growth. Cell counts are performed on each tube and results are reported as percent of control. Alternatively, scoring may be expressed as IC50 which represents the minimum concentration of the composition required to inhibit 50% of the cell growth on the plate. […]

Compound | IC50 (Mus musculus, P388, 48 h) | IC50 (P388 mouse leukemia cells, 48 hours at 37°, 10% CO2)
OC12C=C(C3NCCc4c3[nH]c3ccccc43)C3CCN(CCCC/C=C\CC1)CC31CC3/C=C\CCCCN3C21 (stereo not shown) [Manzamine D, manzamine D] | 0.5 µg/mL (≈ 0.904 µM) | –
OC12C=C(c3nccc4c3[nH]c3ccccc34)C3CCN(CCCC/C=C\CC1)CC31CC3/C=C\CCCCN3C21 (stereo not shown) [Manzamine A, manzamine A, reference compound] | 0.075 µg/mL (≈ 0.137 µM) | –
C1=C\CCCCN(CCc2nccc3c2[nH]c2ccccc23)CCCC/1 [Manzamine C, manzamine C] | – | 3 µg/mL (≈ 8.63 µM)
C1=C\CCC23CN4CCCC/C=C\CCC5(OC5C(c5nccc6c5[nH]c5ccccc56)C2CC4)C3NCCCC/1 (stereo not shown) [Manzamine B, manzamine B] | 6 µg/mL (≈ 10.9 µM) | –
